Source: ChEMBL document CHEMBL1138986, “Novel bifunctional quinolonyl diketo acid derivatives as HIV-1 integrase inhibitors: design, synthesis, biological activities, and mechanism of action” (J Med Chem, 2006)

Experiments:
[1] = system: U-937; assay: Cytotoxicity against U937 cell line; type: functional; conditions: Homo sapiens
[2] = molecular target: T1, Human immunodeficiency virus type 1 integrase (Human immunodeficiency virus 1, UniProt Q7ZJM1); assay: Inhibition of HIV1 integrase strand transfer activity in presence of MgCl2 by plate-based electrochemiluminescent assay
[3] = molecular target: T1, Human immunodeficiency virus type 1 integrase; assay: Inhibition of HIV1 integrase strand transfer activity in presence of MgCl2 by gel-based assay
[4] = molecular target: T1, Human immunodeficiency virus type 1 integrase; assay: Inhibition of HIV1 integrase strand transfer activity in presence of MnCl2
[5] = system: Human immunodeficiency virus 1; assay: Antiviral activity against HIV1 3B; type: functional, organism-based; conditions: Human immunodeficiency virus 1, 3B
[6] = molecular target: T1, Human immunodeficiency virus type 1 integrase; assay: Inhibition of HIV1 integrase 3'-processing activity in presence of MnCl2
[7] = molecular target: T1, Human immunodeficiency virus type 1 integrase; assay: Inhibition of HIV1 integrase 3'-processing activity in presence of MgCl2
[8] = system: U-937; assay: Selectivity index (CC50/EC50); type: functional

T1 sequence (Q7ZJM1 whole entry): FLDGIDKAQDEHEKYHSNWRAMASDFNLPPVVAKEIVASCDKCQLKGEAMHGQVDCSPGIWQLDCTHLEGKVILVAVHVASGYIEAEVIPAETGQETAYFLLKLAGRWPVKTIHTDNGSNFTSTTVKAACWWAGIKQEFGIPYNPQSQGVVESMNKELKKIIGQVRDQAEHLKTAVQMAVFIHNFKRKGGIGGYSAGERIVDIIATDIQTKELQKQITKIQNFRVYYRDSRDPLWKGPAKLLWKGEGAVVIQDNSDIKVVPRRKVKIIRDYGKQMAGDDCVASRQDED

CCOC(=O)C(=O)/C=C(\O)c1ccc2c(c1)c(=O)c(/C(O)=C/C(=O)C(=O)OCC)cn2Cc1ccc(F)cc1
CC50 [1]: 191 µM
IC50 [2]: 0.38 µM
IC50 [3]: 0.29 µM
IC50 [4]: 0.25 µM
EC50 [5]: 20 µM
IC50 [6]: 40 µM
IC50 [7]: 21 µM
Selectivity index [8]: 9.6

O=C(O)C(=O)/C=C(\O)c1ccc2c(c1)c(=O)c(/C(O)=C/C(=O)C(=O)O)cn2Cc1ccc(F)cc1
CC50 [1]: > 200 µM

O=C(O)C(=O)/C=C(\O)c1ccc2ncc(/C(O)=C/C(=O)C(=O)O)c(O)c2c1
CC50 [1]: > 200 µM
IC50 [2]: 9.1 µM
IC50 [3]: 2.9 µM
IC50 [4]: 0.43 µM
EC50 [5]: 36.3 µM
IC50 [6]: > 4.1 µM
IC50 [7]: 22 µM
Selectivity index [8]: 5.5

CCOC(=O)C(=O)/C=C(\O)c1ccc2ncc(/C(O)=C/C(=O)C(=O)OCC)c(O)c2c1
CC50 [1]: > 200 µM
IC50 [2]: 77 µM
IC50 [3]: 39 µM
IC50 [4]: 80 µM
EC50 [5]: > 50 µM
IC50 [6]: > 333 µM
IC50 [7]: 28 µM
